System: Western flower thrips
Test: Insecticidal effect against thrips on caged potted tomato crop
Type: in vivo
Settings: tomato pot in cage, granules 2 g per pot, clothianidin 0.02 g per pot
Experimental: An experiment on the insecticidal effect against thrips was carried out in a tomato crop. A population of the tomato crop having a height of 20 to 25 cm was used, and the tomato crop was put into a plastic cage (30×30×60 cm^3) equipped with a sieve with mesh smaller than that of Western flower thrips to prevent Western flower thrips from moving from a treatment zone, and an experiment was then performed.
A pot in which a tomato crop was planted, was treated with 2 g of the microbial insecticide granules of the present invention prepared in Example 1. Also, as the comparison group, the tomato crop was treated with an agricultural chemical (i.e., clothianidin) known to show a potent insecticidal effect against thrips at an amount of 0.02 g (i.e., an amount of 3 kg/10 a) per pot, and no insecticide was applied to the pot of the control group.

CN/C(=N\[N+](=O)[O-])NCc1cnc(Cl)s1 [clothianidin]
Thrips density After 20 days (after 20 days): 3.7 ± 0.5 number/plant | Thrips density After 40 days (after 40 days): 2.4 ± 0.4 number/plant

— patent US20200100505A1, “MICROBIAL INSECTICIDE FOR CONTROL OF MULBERRY THRIPS” (FARMHANNONG CO., LTD., priority 2017, published 2020)
